Measured values as given in the supplement of paper PMC10331698.
± gives the standard deviation of the averaged measurements.

Experiments:
Assay in all cases: level (log10 ratio to DMSO vehicle control); higher = higher biomarker level / cell amount than vehicle control
[1] = compound: O=S(=O)(O)C(F)(F)C(F)(F)C(F)(F)C(F)(F)C(F)(F)C(F)(F)C(F)(F)C(F)(F)C(F)(F)C(F)(F)F [Sodium perfluorodecanesulfonate]; settings: in DMSO
Method: (§1)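 BioMAP Diversity Plus panel of 12 human primary cell co-culture systems (3C, 4H, LPS, SAg, BT, BF4T, BE3C, CASM3C, HDF3CGF, KF3CT, MyoF, Mphg). Compounds were added 1 h before stimulation and left for 24 h (MyoF 48 h; BT 72 h for soluble read-outs or 6 d for IgG). Biomarkers were read by ELISA, cytotoxicity by SRB, PBMC viability and proliferation by Alamar Blue. Each well value was divided by the mean of 8 DMSO control wells on the same plate and log10 transformed; duplicate blinded samples were tested at 4 concentrations.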

[2] = compound: FC(F)(F)C(F)(F)C(F)(F)CC1CO1 [1H,1H-Heptafluorobutyl epoxide]; settings: in DMSO
Method: as §1

[3] = compound: O=C(O)C=CC(F)(C(F)(F)F)C(F)(F)F [3-(Perfluoroisopropyl)-2-propenoic acid]; settings: in DMSO
Method: as §1

Heptafluorobutyl iodide = compound: FC(F)(F)C(F)(F)C(F)(F)CI [Heptafluorobutyl iodide]; settings: in DMSO
Method: as §1

[4] = compound: O=C(O)C(F)(F)C(F)(F)C(F)(F)C(F)(F)C(F)(F)C(F)(F)C(F)(F)C(F)(F)C(F)(F)C(F)F [11-H-Perfluoroundecanoic acid]; settings: in DMSO
Method: as §1

[5] = compound: O=S(=O)(O)CCC(F)(F)C(F)(F)C(F)(F)C(F)(F)C(F)(F)C(F)(F)F [6:2 Fluorotelomer sulfonic acid]; settings: in DMSO
Method: as §1

[6] = compound: C=C(C)C(=O)OCCC(F)(F)C(F)(F)C(F)(F)C(F)(F)C(F)(F)C(F)(F)F [6:2 Fluorotelomer methacrylate]; settings: in DMSO
Method: as §1

Hexafluoroamylene glycol = compound: OCC(F)(F)C(F)(F)C(F)(F)CO [Hexafluoroamylene glycol]; settings: in DMSO
Method: as §1

[7] = compound: O=S(=O)(Cl)C(F)(F)C(F)(F)C(F)(F)C(F)(F)C(F)(F)C(F)(F)C(F)(F)C(F)(F)F [Perfluoro-1-octanesulfonyl chloride]; settings: in DMSO
Method: as §1

Octafluoroadipamide = compound: NC(=O)C(F)(F)C(F)(F)C(F)(F)C(F)(F)C(N)=O [Octafluoroadipamide]; settings: in DMSO
Method: as §1

[8] = compound: C=CC(=O)OCC(F)(F)C(F)(F)C(F)(F)COC(=O)C=C [1H,1H,5H,5H-Perfluoro-1,5-pentanediol diacrylate]; settings: 6700 nM; in DMSO
Method: as §1

[9] = compound: NS(=O)(=O)C(F)(F)C(F)(F)C(F)(F)C(F)(F)C(F)(F)C(F)(F)F [Perfluorohexanesulfonamide]; settings: in DMSO
Method: as §1

[10] = compound: FC(F)(F)C(F)(F)C(F)(F)C(F)(F)C(F)(F)C(F)(F)CC1CO1 [3-(Perfluorohexyl)-1,2-epoxypropane]; settings: in DMSO
Method: as §1

Nonafluoropentanamide = compound: NC(=O)C(F)(F)C(F)(F)C(F)(F)C(F)(F)F [Nonafluoropentanamide]; settings: in DMSO
Method: as §1

[11] = compound: O=S(=O)(F)C(F)(F)C(F)(F)C(F)(F)C(F)(F)C(F)(F)C(F)(F)C(F)(F)C(F)(F)F [Perfluorooctanesulfonyl fluoride]; settings: in DMSO
Method: as §1

[12] = compound: COC(=O)C(F)(F)C(F)(F)OC(F)(C(F)(F)F)C(F)(F)OC(F)=C(F)F [Methyl perfluoro(3-(1-ethenyloxypropan-2-yloxy)propanoate)]; settings: in DMSO
Method: as §1

[13] = compound: NC(=O)C(F)(F)C(F)(F)C(F)(F)C(F)F; settings: in DMSO
Method: as §1

[14] = compound: FC(F)(F)C(F)(F)CNCC(F)(F)C(F)(F)F [Bis(1H,1H-perfluoropropyl)amine]; settings: in DMSO
Method: as §1

[15] = compound: FC(F)(F)C(F)(F)C(F)(F)C(F)(F)C(F)(F)C(F)(F)C(F)(F)I [1-Iodopentadecafluoroheptane]; settings: in DMSO
Method: as §1

HDF3CGF:CXCL11/I-TAC
level (log10) ([1]; 1500 nM): -0.0205 ± 0.029 | level (log10) ([1]; 4400 nM): -0.0225 ± 0.0092 | level (log10) ([1]; 13000 nM): 0.0785 ± 0.013 | level (log10) ([1]; 40000 nM): 0.092 ± 0.0042 | level (log10) ([2]; 6700 nM): -0.0165 ± 0.063 | level (log10) ([2]; 20000 nM): -0.016 ± 0.093 | level (log10) ([2]; 60000 nM): -0.0255 ± 0.11 | level (log10) ([3]; 6700 nM): -0.004 ± 0.0014 | level (log10) ([3]; 20000 nM): 0.015 ± 0.025 | level (log10) ([3]; 60000 nM): 0.002 ± 0.021 | level (log10) (Heptafluorobutyl iodide; 6700 nM): -0.0515 ± 0.019 | level (log10) (Heptafluorobutyl iodide; 20000 nM): -0.069 ± 0.076 | level (log10) (Heptafluorobutyl iodide; 60000 nM): -0.091 ± 0.045 | level (log10) ([4]; 6700 nM): -0.127 ± 0.023 | level (log10) ([4]; 20000 nM): -0.2405 ± 0.0021 | level (log10) ([5]; 6700 nM): -0.0445 ± 0.1 | level (log10) ([5]; 20000 nM): -0.0605 ± 0.088 | level (log10) ([5]; 60000 nM): -0.0885 ± 0.091 | level (log10) ([6]; 6700 nM): -0.022 ± 0.021 | level (log10) ([6]; 20000 nM): -0.014 ± 0.0014 | level (log10) ([6]; 60000 nM): -0.018 ± 0.013 | level (log10) (Hexafluoroamylene glycol; 6700 nM): 0.001 ± 0.04 | level (log10) (Hexafluoroamylene glycol; 20000 nM): -0.015 ± 0.088 | level (log10) (Hexafluoroamylene glycol; 60000 nM): -0.044 ± 0.1 | level (log10) ([7]; 6700 nM): -0.038 ± 0.0028 | level (log10) ([7]; 20000 nM): -0.0315 ± 0.018 | level (log10) ([7]; 60000 nM): -0.0145 ± 0.022 | level (log10) (Octafluoroadipamide; 6700 nM): -0.0025 ± 0.011 | level (log10) (Octafluoroadipamide; 20000 nM): 0 ± 0.023 | level (log10) (Octafluoroadipamide; 60000 nM): 0.018 ± 0.0014 | level (log10) [8]: -0.41 ± 0.045 | level (log10) ([9]; 6700 nM): 0.0075 ± 0.018 | level (log10) ([9]; 20000 nM): -0.028 ± 0.011 | level (log10) ([9]; 60000 nM): -0.189 ± 0.033 | level (log10) ([10]; 6700 nM): 0.01 ± 0.016 | level (log10) ([10]; 20000 nM): 0.015 ± 0.0028 | level (log10) ([10]; 60000 nM): -0.003 ± 0.027 | level (log10) (Nonafluoropentanamide; 6700 nM): -0.0095 ± 0.021 | level (log10) (Nonafluoropentanamide; 20000 nM): 0.009 ± 0.024 | level (log10) (Nonafluoropentanamide; 60000 nM): -0.0155 ± 0.011 | level (log10) ([11]; 6700 nM): -0.0035 ± 0.0021 | level (log10) ([11]; 20000 nM): -0.012 ± 0.0028 | level (log10) ([11]; 60000 nM): -0.0155 ± 0.0021 | level (log10) ([12]; 6700 nM): -0.0285 ± 0.018 | level (log10) ([12]; 20000 nM): -0.272 ± 0.0078 | level (log10) ([13]; 6700 nM): -0.0035 ± 0.016 | level (log10) ([13]; 20000 nM): -0.002 ± 0.013 | level (log10) ([13]; 60000 nM): -0.002 ± 0.027 | level (log10) ([14]; 6700 nM): -0.0065 ± 0.0092 | level (log10) ([14]; 20000 nM): -0.0045 ± 0.013 | level (log10) ([14]; 60000 nM): 0.0195 ± 0.035 | level (log10) ([15]; 6700 nM): -0.019 ± 0.0057 | level (log10) ([15]; 20000 nM): -0.0405 ± 0.0092

KF3CT:CD54/ICAM-1
level (log10) ([1]; 1500 nM): 0.0035 ± 0.013 | level (log10) ([1]; 4400 nM): 0.018 ± 0.023 | level (log10) ([1]; 13000 nM): 0.08 ± 0.013 | level (log10) ([1]; 40000 nM): 0.09 | level (log10) ([2]; 6700 nM): 0.003 ± 0.013 | level (log10) ([2]; 20000 nM): -0.012 ± 0.0042 | level (log10) ([2]; 60000 nM): -0.0105 ± 0.025 | level (log10) ([3]; 6700 nM): 0.0075 ± 0.013 | level (log10) ([3]; 20000 nM): 0.011 ± 0.018 | level (log10) ([3]; 60000 nM): -0.0025 ± 0.029 | level (log10) (Heptafluorobutyl iodide; 6700 nM): -0.008 ± 0.0071 | level (log10) (Heptafluorobutyl iodide; 20000 nM): -0.004 ± 0.0028 | level (log10) (Heptafluorobutyl iodide; 60000 nM): -0.012 ± 0.0014 | level (log10) ([4]; 6700 nM): -0.0285 ± 0.039 | level (log10) ([4]; 20000 nM): 0.0945 ± 0.0092 | level (log10) ([5]; 6700 nM): -0.0095 ± 0.0064 | level (log10) ([5]; 20000 nM): -0.0265 ± 0.0035 | level (log10) ([5]; 60000 nM): -0.037 ± 0.0071 | level (log10) ([6]; 6700 nM): 0.006 ± 0.016 | level (log10) ([6]; 20000 nM): -0.014 ± 0.031 | level (log10) ([6]; 60000 nM): -0.0075 ± 0.005 | level (log10) (Hexafluoroamylene glycol; 6700 nM): 0.0035 ± 0.021 | level (log10) (Hexafluoroamylene glycol; 20000 nM): -0.0155 ± 0.012 | level (log10) (Hexafluoroamylene glycol; 60000 nM): -0.013 ± 0.0099 | level (log10) ([7]; 6700 nM): -0.0055 ± 0.0021 | level (log10) ([7]; 20000 nM): -0.008 ± 0.0028 | level (log10) ([7]; 60000 nM): 0.0325 ± 0.016 | level (log10) (Octafluoroadipamide; 6700 nM): -0.0015 ± 0.0021 | level (log10) (Octafluoroadipamide; 20000 nM): -0.003 | level (log10) (Octafluoroadipamide; 60000 nM): 0.0115 ± 0.022 | level (log10) [8]: -0.076 ± 0.0042 | level (log10) ([9]; 6700 nM): -0.0235 ± 0.015 | level (log10) ([9]; 20000 nM): -0.019 ± 0.0085 | level (log10) ([9]; 60000 nM): -0.0285 ± 0.025 | level (log10) ([10]; 6700 nM): 0.006 ± 0.0071 | level (log10) ([10]; 20000 nM): 0.026 | level (log10) ([10]; 60000 nM): 0.0085 ± 0.0092 | level (log10) (Nonafluoropentanamide; 6700 nM): -0.018 ± 0.0071 | level (log10) (Nonafluoropentanamide; 20000 nM): -0.016 ± 0.0071 | level (log10) (Nonafluoropentanamide; 60000 nM): -0.025 ± 0.0028 | level (log10) ([11]; 6700 nM): 0.0055 ± 0.029 | level (log10) ([11]; 20000 nM): 0.003 ± 0.0028 | level (log10) ([11]; 60000 nM): 0.009 ± 0.0028 | level (log10) ([12]; 6700 nM): -0.025 | level (log10) ([12]; 20000 nM): -0.008 ± 0.0071 | level (log10) ([13]; 6700 nM): -0.0075 ± 0.011 | level (log10) ([13]; 20000 nM): -0.0255 ± 0.005 | level (log10) ([13]; 60000 nM): -0.008 ± 0.0014 | level (log10) ([14]; 6700 nM): -0.011 ± 0.011 | level (log10) ([14]; 20000 nM): -0.008 ± 0.0085 | level (log10) ([14]; 60000 nM): 0.012 ± 0.018 | level (log10) ([15]; 6700 nM): -0.015 ± 0.0085 | level (log10) ([15]; 20000 nM): -0.018 ± 0.021
